# Reference: patent publication US7339080B2, “Method for the production of diaminoxylene by continuous hydrogenation of liquid phthalonitrile” (BASF Aktiengesellschaft, priority 2003, dated 2008)
# Assay: solubility of IPN in process solvents (MXDA, liquid ammonia)
# Type: physicochemical
structure (smiles),measurement,setting,value
"N#Cc1cccc(C#N)c1 [IPN, 1,3-dicyanobenzene]",solubility of IPN in MXDA,in MXDA at 70° C.,approx. 20 % by weight
same,solubility of IPN in NH3,in liquid ammonia (NH3) at 40° C.,approx. 45 % by weight
